Source: ChEMBL document CHEMBL1201862, “PubChem BioAssay data set” (2004)
The source made the active and inactive calls.

Key:
[1] = target: T1, Calpain-2 catalytic subunit (Sus scrofa, UniProt P43367); assay: m-calpain protease blockers, concentration series – biochemical, fluorogenic peptide substrate, dose response (AID 1420); assay type: functional
T1 sequence (P43367 whole entry): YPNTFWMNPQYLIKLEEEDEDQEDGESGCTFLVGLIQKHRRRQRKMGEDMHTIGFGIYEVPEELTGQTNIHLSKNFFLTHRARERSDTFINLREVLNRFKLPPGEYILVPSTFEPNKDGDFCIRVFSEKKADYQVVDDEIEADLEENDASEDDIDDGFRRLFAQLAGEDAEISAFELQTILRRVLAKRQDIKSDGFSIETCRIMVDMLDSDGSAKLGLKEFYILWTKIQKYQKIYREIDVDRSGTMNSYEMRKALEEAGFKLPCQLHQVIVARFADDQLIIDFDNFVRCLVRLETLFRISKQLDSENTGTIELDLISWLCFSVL

[2] = target: T2, Rac GTPase-activating protein 1 (Homo sapiens, UniProt Q9H0H5); assay: blockers of MgcRacGAP-driven Rac1 GTP hydrolysis – biochemical, ADP Hunter fluorescence, primary and confirmatory, confirmation (AID 624330); assay type: functional
T2 sequence (Q9H0H5 whole entry): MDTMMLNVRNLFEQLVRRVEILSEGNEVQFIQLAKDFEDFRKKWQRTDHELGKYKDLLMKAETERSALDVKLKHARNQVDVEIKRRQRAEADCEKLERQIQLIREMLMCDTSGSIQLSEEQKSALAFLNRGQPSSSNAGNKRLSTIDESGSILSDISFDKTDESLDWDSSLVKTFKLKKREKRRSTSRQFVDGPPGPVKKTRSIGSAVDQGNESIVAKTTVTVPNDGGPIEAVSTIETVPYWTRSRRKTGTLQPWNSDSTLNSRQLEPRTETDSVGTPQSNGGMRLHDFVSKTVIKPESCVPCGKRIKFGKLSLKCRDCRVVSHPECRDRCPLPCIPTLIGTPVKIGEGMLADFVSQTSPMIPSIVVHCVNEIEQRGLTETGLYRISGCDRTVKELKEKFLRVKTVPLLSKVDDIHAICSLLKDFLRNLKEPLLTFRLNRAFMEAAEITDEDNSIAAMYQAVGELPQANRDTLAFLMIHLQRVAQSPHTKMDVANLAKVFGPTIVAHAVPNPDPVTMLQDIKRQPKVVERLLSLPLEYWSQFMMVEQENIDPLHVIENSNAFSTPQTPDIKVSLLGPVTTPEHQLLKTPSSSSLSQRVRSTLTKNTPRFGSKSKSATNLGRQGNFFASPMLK

[3] = target: T3, Polyadenylate-binding protein 1 (Homo sapiens, UniProt P11940); assay: MLLE binding blockers, Cy5 peptide tracer – biochemical, fluorescence polarization, Cy5-PAM2 peptide, secondary, miRNA deadenylation inhibitor project, dose response (AID 602260); assay type: functional; settings: read-out: IC50_Mean
[4] = target: T3, Polyadenylate-binding protein 1; assay: MLLE domain peptide-binding blockers, IC50 – biochemical, fluorescence polarization, FITC-PAM2 peptide, dose response (AID 602259); assay type: functional; settings: read-out: IC50_Mean
BJ [5] = assay: BJ-TERT-LT-ST fibroblast viability loss – cell-based, RAS-independent, luminescence, dose response (AID 1935); assay type: functional; settings: Homo sapiens;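 note: BJ fibroblasts immortalized with TERT plus LT and ST oncogenes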
BJ [6] = assay: cells; assay type: functional, cell-based; settings: Homo sapiens
[7] = DRD fibroblast viability loss – cell-based, non-viral oncogenic, luminescence, dose response (AID 1934); assay type: functional; settings: Homo sapiens
BJ [8] = assay: BJ-TERT fibroblast viability loss – cell-based, RAS-independent, luminescence, dose response (AID 1933); assay type: functional; settings: Homo sapiens
cells [9] = assay type: functional, cell-based
cells [10] = assay type: functional, cell-based; remark: listed apart in the source
[11] = target: T4, Corticotropin-releasing factor receptor 2/Corticotropin-releasing factor-binding protein (Homo sapiens, UniProt P24387+Q13324); assay: activators of CRF receptor 2 with binding protein – uHTS hits, confirmation (AID 602473); assay type: functional; settings: read-out: EC50_Mean
T4 sequence (Q13324 whole entry): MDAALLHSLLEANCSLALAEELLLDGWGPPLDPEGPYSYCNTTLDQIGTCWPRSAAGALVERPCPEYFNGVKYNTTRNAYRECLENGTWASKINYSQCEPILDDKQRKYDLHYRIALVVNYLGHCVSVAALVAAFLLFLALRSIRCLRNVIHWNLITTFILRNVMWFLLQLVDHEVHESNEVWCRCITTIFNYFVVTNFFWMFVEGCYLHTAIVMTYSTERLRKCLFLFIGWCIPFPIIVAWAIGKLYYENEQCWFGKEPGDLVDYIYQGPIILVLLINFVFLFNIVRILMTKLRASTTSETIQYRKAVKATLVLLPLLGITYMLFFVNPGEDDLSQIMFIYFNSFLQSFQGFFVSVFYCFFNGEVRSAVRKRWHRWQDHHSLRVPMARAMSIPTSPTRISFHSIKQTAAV
T4 sequence (P24387 whole entry): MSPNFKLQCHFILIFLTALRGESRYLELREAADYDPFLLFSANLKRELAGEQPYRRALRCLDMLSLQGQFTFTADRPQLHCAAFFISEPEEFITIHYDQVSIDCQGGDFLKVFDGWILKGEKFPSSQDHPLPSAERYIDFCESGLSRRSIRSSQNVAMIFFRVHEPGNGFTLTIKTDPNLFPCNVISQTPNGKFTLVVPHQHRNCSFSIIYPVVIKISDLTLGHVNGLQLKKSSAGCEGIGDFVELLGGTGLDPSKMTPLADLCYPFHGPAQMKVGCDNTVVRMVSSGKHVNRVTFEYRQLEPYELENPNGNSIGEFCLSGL

[12] = target: T4, Corticotropin-releasing factor receptor 2/Corticotropin-releasing factor-binding protein; assay: Dose Response confirmation of uHTS hits for small molecule antagonists of the CRF-binding protein and CRF-R2 receptor complex.; assay type: functional; settings: read-out: IC50_Mean
Paired box protein Pax-8 = Paired box protein Pax-8 (Homo sapiens, UniProt Q06710); assay: PAX8 transcriptional activity inhibition in RMG-I – RMG-I cells, luciferase, cherry-pick, dose response (AID 687027); assay type: functional, cell-based;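 note: luciferase reporter driven by Pax8 target thyroperoxidase promoter measured by SteadyGlo luminescence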
Cytochrome P450 2D6 = Cytochrome P450 2D6 (Homo sapiens, UniProt P10635);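 note: CYP2D6 member of a cytochrome P450 panel assay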
[13] = Luminescence Cell-Based Dose Response HTS to Identify Activators of Luciferase Translation or Activity in H4 […] Cells. [Related pubchem assays: 1829 (Project Summary), 1814 (Primary HTS)]; assay type: functional

T3 sequence (P11940 whole entry, the tested form may be a part): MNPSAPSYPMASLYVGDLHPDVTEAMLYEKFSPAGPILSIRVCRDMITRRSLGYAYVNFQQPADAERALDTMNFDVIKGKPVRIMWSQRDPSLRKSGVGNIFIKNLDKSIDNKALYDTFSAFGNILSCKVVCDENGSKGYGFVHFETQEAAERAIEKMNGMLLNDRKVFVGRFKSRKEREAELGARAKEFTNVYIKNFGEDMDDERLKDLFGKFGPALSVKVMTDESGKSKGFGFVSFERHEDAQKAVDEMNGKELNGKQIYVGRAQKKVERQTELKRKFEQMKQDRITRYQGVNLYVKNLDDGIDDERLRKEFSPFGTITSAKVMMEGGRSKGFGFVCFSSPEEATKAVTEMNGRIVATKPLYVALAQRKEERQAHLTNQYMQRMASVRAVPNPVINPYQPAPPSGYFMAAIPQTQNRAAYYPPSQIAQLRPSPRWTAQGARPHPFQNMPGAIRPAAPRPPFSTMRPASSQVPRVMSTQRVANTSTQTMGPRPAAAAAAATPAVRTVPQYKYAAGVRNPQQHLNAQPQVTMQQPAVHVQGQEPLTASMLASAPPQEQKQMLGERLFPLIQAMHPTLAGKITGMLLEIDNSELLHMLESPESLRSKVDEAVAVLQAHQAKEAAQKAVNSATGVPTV
Paired box protein Pax-8, sequence (Q06710 whole entry): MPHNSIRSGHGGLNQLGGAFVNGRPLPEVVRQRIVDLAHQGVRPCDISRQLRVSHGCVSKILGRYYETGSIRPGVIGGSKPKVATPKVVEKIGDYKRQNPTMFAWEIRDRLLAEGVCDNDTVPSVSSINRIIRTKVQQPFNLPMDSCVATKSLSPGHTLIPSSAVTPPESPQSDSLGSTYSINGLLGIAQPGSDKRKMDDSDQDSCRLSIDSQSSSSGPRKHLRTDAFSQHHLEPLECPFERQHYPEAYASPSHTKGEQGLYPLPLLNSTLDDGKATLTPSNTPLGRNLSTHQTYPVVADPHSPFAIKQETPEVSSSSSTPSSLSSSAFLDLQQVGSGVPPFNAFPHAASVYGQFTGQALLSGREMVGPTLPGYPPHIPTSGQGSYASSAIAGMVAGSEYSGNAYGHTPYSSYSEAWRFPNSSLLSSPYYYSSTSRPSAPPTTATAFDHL
Cytochrome P450 2D6, sequence (P10635 whole entry): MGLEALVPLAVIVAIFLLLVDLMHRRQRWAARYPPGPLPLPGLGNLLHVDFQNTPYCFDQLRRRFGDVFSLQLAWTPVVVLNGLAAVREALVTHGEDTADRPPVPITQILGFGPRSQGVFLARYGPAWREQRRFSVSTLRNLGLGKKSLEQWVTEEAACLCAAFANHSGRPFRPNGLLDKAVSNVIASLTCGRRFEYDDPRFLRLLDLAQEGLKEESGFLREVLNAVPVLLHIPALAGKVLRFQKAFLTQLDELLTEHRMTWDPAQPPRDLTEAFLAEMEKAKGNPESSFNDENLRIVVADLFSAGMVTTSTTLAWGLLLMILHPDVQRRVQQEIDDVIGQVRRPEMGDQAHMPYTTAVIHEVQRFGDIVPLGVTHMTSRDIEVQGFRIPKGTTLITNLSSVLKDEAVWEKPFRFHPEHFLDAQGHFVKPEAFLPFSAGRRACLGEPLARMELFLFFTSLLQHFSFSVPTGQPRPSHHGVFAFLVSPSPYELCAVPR

COc1cc(CNc2nc(C)c([N+](=O)[O-])c(C)c2C#N)cc(OC)c1
IC50 [1]: 1.63 µM (not active)

c1ccc(CNC23CC4CC(CC(C4)C2)C3)nc1
IC50 [2]: 110 µM (active)

CCCCOC(=O)c1ccc(NC(=O)c2c(Cl)ccc(Cl)c2OC)cc1
IC50 [1]: 10.8 µM (not active)

CCOC(=O)c1c(-c2ccc(C)o2)csc1NC(=S)NC(=O)c1ccc(F)cc1
IC50 [3]: > 66 µM (inactive) | IC50 [4]: > 66 µM (inactive)

CC(=O)/C(C#N)=C1\NC(=O)C(Cc2cc(Cl)ccc2Cl)S1 (stereo unspecified)
EC50 (BJ [5]): > 150 µM (not active) | EC50 (BJ [6]): 61.2 µM (active) | EC50 [7]: 76.8 µM (active) | EC50 (BJ [8]): > 150 µM (not active)

O=C(N/C(=C\c1ccco1)C(=O)N1CCCC1CO)c1ccccc1 (stereo unspecified)
IC50 [3]: > 66 µM (inactive) | IC50 [4]: > 66 µM (inactive)

CCCCC1=CC2=C(c3ccco3)C(=O)C(C)(OC(=O)c3ccc(OC)cc3)C(=O)C2=CN1c1ccc(OC)cc1 (stereo unspecified)
EC50 (BJ [5]): > 150 µM (inconclusive) | EC50 (BJ [6]): > 150 µM (not active) | EC50 [7]: > 150 µM (not active) | EC50 (BJ [8]): 47.1 µM (active)

O=C(CSc1ccc(-c2cccnc2)nn1)c1ccc([N+](=O)[O-])cc1
IC50 [3]: > 66 µM (inactive) | IC50 [4]: > 66 µM (inactive)

CCOCCCN=C(S)Nc1cc(C)cc(C)c1
EC50 (cells [9]): > 350 µM (not active) | EC50 (cells [10]): > 350 µM (not active)

CSCc1ccc(C(=O)N2CCCC(Nc3ccc4c(c3)OCCO4)C2)o1 (stereo unspecified)
IC50 [2]: 152 µM (active)

COc1ccccc1S(=O)(=O)Cc1ccc(C(=O)NCc2ccccc2)o1
EC50 [11]: > 53 µM (inactive) | IC50 [12]: > 47.1 µM (inactive)

Cc1noc(/C=C/c2ccco2)c1S(=O)(=O)N1CCC(C(=O)NC(C)c2ccccc2)CC1 (stereo unspecified)
AC50 (Paired box protein Pax-8): 0.931 µM (active)

COc1cccc(OC)c1OCCCN1CCOCC1
AC50 (Cytochrome P450 2D6): 39.8 µM (inconclusive) | IC50 [2]: 162 µM (active)

CC(=O)c1ccc(NC(=O)C2CCCNC2=O)cc1 (stereo unspecified)
IC50 [3]: > 66 µM (inactive) | IC50 [4]: > 66 µM (inactive)

Cc1noc(C)c1COc1ccc(C(=O)OCc2nnc(-c3ccc(Cl)cc3)o2)cc1
IC50 [1]: 4.47 µM (not active)

Cn1c(SCC(=O)N2CCCc3ccccc32)nc2cccnc21
EC50 [11]: > 53 µM (inactive) | IC50 [12]: > 47.1 µM (inactive)

COc1ccc(N2CCN(C(=O)Nc3ccc(S(=O)(=O)N(C)C)cc3)CC2)cc1
IC50 [1]: < 0.4 µM (not active)

N#CC1=C(S)N(c2ccccc2)C(c2ccc(-c3ccccc3Cl)o2)NC1=O (stereo unspecified)
IC50 [2]: 99.8 µM (active)

O=C(CN1C(=O)NC(Cc2ccccc2)C1=O)Nc1ccccc1 (stereo unspecified)
IC50 [1]: 17.4 µM (not active)

COc1ccnc(Oc2ccc3ccccc3c2)c1C#N
IC50 [1]: > 50 µM (not active)

COc1cccc(/C=C2\SC(=O)N(CC(=O)NC3C=CS(=O)(=O)C3)C2=O)c1 (stereo unspecified)
IC50 [3]: > 66 µM (inactive) | IC50 [4]: 56.6 µM (inactive)

COc1ccc(NC(S)=NCCc2c(C)[nH]c3ccc(OC)cc23)cc1
IC50 [1]: 30.1 µM (not active)

CCCN(CCC)C(C)C(=O)NCC1(c2ccccc2)CCCC1 (stereo unspecified)
EC50 (cells [9]): 45.6 µM (active) | EC50 (cells [10]): > 350 µM (not active)

Cc1cccnc1NC(=O)C(C)Oc1ccccc1 (stereo unspecified)
EC50 [11]: > 53 µM (inactive) | IC50 [12]: > 47.1 µM (inactive)

CN(NC(=O)c1ccccc1F)c1nc(C(F)(F)F)nc2ccccc12
EC50 (BJ [5]): 0.428 µM (inconclusive) | EC50 (BJ [6]): 0.813 µM (active) | EC50 [7]: 0.628 µM (active) | EC50 (BJ [8]): 0.667 µM (inconclusive)

O=C(CSc1ccc(-c2ccccn2)nn1)Nc1nccs1
EC50 (cells [9]): > 350 µM (not active) | EC50 (cells [10]): > 350 µM (not active)

Cc1ccc(CCC(=O)Nc2ncc(Cc3cccc(Cl)c3Cl)s2)o1
EC50 (BJ [5]): 0.216 µM (inconclusive) | EC50 (BJ [6]): 0.668 µM (active) | EC50 [7]: 0.381 µM (active) | EC50 (BJ [8]): 0.311 µM (active)

Cc1ccc(C)c(S(=O)(=O)N2CCN(CC(=O)N3CCc4ccccc4C3)CC2)c1
IC50 [2]: 93 µM (active)

Cc1ccc(-n2c(C)cc(C(=O)COC(=O)c3c(C)noc3C)c2C)cc1
EC50 [13]: 0.413 µM (active)

COc1ccccc1NC(=O)C1CCN(C(=O)c2ccc(C(C)(C)C)cc2)CC1
EC50 (cells [9]): > 350 µM (not active) | EC50 (cells [10]): > 350 µM (not active)

Cc1noc(C)c1COC(=O)C(c1ccccc1)c1ccccc1
IC50 [1]: 11.3 µM (not active)

COc1ccc(CNC(=O)[C@H](C)NC(=O)C2CCN(S(=O)(=O)c3ccc(F)cc3)CC2)cc1
EC50 [11]: > 53 µM (inactive) | IC50 [12]: > 47.1 µM (inactive)

CC(=O)CC(=O)Nc1ccc(Nc2ccccc2)cc1
IC50 [2]: 178 µM (active)

Cc1occc1C(=O)NC(C)C12CC3CC(CC(C3)C1)C2 (stereo unspecified)
EC50 [11]: > 53 µM (inactive) | IC50 [12]: > 47.1 µM (inactive)

CSc1ccc(S(=O)(=O)NCC(=O)OCC(=O)N(Cc2ccccc2)C(C)C)cc1[N+](=O)[O-]
EC50 [11]: > 53 µM (inactive) | IC50 [12]: > 47.1 µM (inactive)

COc1ccc(NC2CCCN(C(=O)c3ccc(C)nc3)C2)cc1 (stereo unspecified)
IC50 [2]: 161 µM (active)

CCc1ccc(Nc2nnc(SC(C)C(=O)NC3CC3)s2)cc1 (stereo unspecified)
EC50 [11]: > 53 µM (inactive) | IC50 [12]: > 47.1 µM (inactive)

O=C(CN1c2cccc3cccc(c23)S1(=O)=O)NC1CCCCC1
EC50 [11]: > 53 µM (inactive) | IC50 [12]: > 47.1 µM (inactive)

CC(/C=N/Nc1nc(C)cc(C)n1)=C\c1ccc(C(C)C)cc1
EC50 [11]: > 53 µM (inactive) | IC50 [12]: > 47.1 µM (inactive)

C[C@H](CO)N1C[C@H](C)[C@H](CN(C)Cc2ccc3c(c2)OCO3)Oc2ccc(NC(=O)Nc3cccc4ccccc34)cc2C1=O
AC50 (Paired box protein Pax-8): 26.5 µM (active)

COc1cc(/C=N/N2C(=O)c3ccccc3C2=O)ccc1O
IC50 [2]: 50.2 µM (active)

CCOc1cc(/C=N/NC(=O)C(OC)c2ccccc2)ccc1O (stereo unspecified)
IC50 [2]: 54.9 µM (active)

S=C(N/N=C/c1cccc2ccccc12)Nc1cccc(Cl)c1
EC50 (cells [9]): > 350 µM (not active) | EC50 (cells [10]): > 350 µM (not active)

O=C1ON=C(c2ccccc2)/C1=C/c1ccco1
IC50 [2]: 91 µM (active)
